Measurements from patent US20130029970A1 (priority 2009, published 2013).
“And” between values parts separate entries of the source, which are not always exact repeats. Equal values may be shown once.

Tested on: CFA induced inflammatory pain in the rat
Assay: Complete Freund's Adjuvant (CFA) induced inflammatory pain model
Assay type: in vivo
Settings: 3 mg/kg PO
Experimental: In this rat model of inflammatory pain, 100 uL of CFA diluted 1:1 with phosphate buffered saline was injected into the subplantar region of the right hind paw on Day 1. On day 3, test compounds were administered orally and rats were assessed for their reaction to a mechanical stimuli applied via an Analgesy® meter. Injection of CFA increased the rats' reactivity to painful stimuli and this was reflected in a decrease in the amount of pressure they could tolerate prior to withdrawing their paw from the apparatus (hyperalgesia). An anti-hyperalgesic activity of the test compound was denoted by an increase in the amount of pressure they can tolerate prior to withdrawing their paw from the apparatus. The mean±SEM for each treatment group was determined and a Dunnett test was applied for comparison between vehicle and treated groups. Differences were considered significant at P<0.05. (see Bertorelli et al. 1999 Brit Journ Pharmacol 128:1252).

Structure (SMILES)	Post CFA PWT (grams)
COc1ccc(C(=O)c2cc3cc(C)n(CCN4CCOCC4)c3s2)cc1 [Compound I-36]	114.3 ± 11.8

Same assay, conditions: 10 mg/kg PO

Structure (SMILES)	Post CFA PWT (grams)
COc1ccc(C(=O)c2cc3cc(C)n(CCN4CCOCC4)c3s2)cc1 [Compound I-36]	90.7 ± 10.4
COc1ccc(C(=O)c2cc3cc(C)n(CCCNS(C)(=O)=O)c3s2)cc1 [Compound I-44]	164.4 ± 8.4

Same assay, conditions: 30 mg/kg PO

Structure (SMILES)	Post CFA PWT (grams)
COc1ccc(C(=O)c2cc3cc(C)n(CCN4CCOCC4)c3s2)cc1 [Compound I-36]	157.3 ± 11.4
COc1ccc(C(=O)c2cc3cc(C)n(CCCNS(C)(=O)=O)c3s2)cc1 [Compound I-44]	153.7 ± 10.7

Same assay, conditions: 56 mg/kg PO

Structure (SMILES)	Post CFA PWT (grams)
COc1ccc(C(=O)c2cc3cc(C)n(CCN4CCOCC4)c3s2)cc1 [Compound I-36]	191 ± 12.1
COc1ccc(C(=O)c2cc3cc(C)n(CCCNS(C)(=O)=O)c3s2)cc1 [Compound I-44]	150 ± 13.8

Same assay, conditions: 60 mg/kg PO

Structure (SMILES)	Post CFA PWT (grams)
COc1ccc(C(=O)c2cc3cc(C)n(CCN4CCOCC4)c3s2)cn1 [Compound I-58]	170.3 ± 19.7
COc1ccc(C(=O)c2cc3cc(C)n(CCN4CCOCC4)c3s2)c(F)c1 [Compound I-68]	178.7 ± 24.4
COc1ccc(C(=O)c2cc3cc(C)n(CCN4CCOCC4)c3s2)c(Cl)c1 [Compound I-70]	195.7 ± 16.4
COc1ccc(C(=O)c2cc3cc(C)n(CCN4CCCCC4)c3s2)cc1 [Compound I-78]	181.7 ± 22.3
COc1ccc(C(=O)c2cc3cc(C)n(CCCNS(C)(=O)=O)c3s2)c(F)c1 [Compound I-87]	100.7 ± 11.3
CCOc1ccc(C(=O)c2cc3cc(C)n(CCN4CCOCC4)c3s2)c(F)c1 [Compound I-89]	178.7 ± 19.6
CCOc1ccc(C(=O)c2cc3cc(C)n(CCCNS(C)(=O)=O)c3s2)c(F)c1 [Compound I-95]	111.7 ± 20.5
COc1ccc(C(=O)c2cc3cc(C)n(CCCNS(C)(=O)=O)c3s2)cn1 [Compound I-109]	132 ± 12.3
Cc1cc2cc(C(=O)c3ccc(OC(C)C)cc3)sc2n1CCN1CCOCC1 [Compound I-111]	140.7 ± 13.7
Cc1ccc(C(=O)c2cc3cc(C)n(CCN4CCOCC4)c3s2)cc1 [Compound I-124]	196.7 ± 27.3

Tested on: PBQ-induced writhing in the mouse
Assay: Phenylbenzoquinone-induced (PBQ) writhing model
Settings: Dose 3, PO

Structure (SMILES)	Number of Writhes
COc1ccc(C(=O)c2cc3cc(C)n(CCN4CCOCC4)c3s2)cc1 [Compound I-36]	14.5 ± 1.59
COc1ccc(C(=O)c2cc3cc(C)n(CCCNS(C)(=O)=O)c3s2)cc1 [Compound I-44]	13.9 ± 1.4
COc1ccc(C(=O)c2cc3cc(C)n(CCN4CCOCC4)c3s2)c(F)c1 [Compound I-68]	9.6 ± 2.2
COc1ccc(C(=O)c2cc3cc(C)n(CCCNS(C)(=O)=O)c3s2)cn1 [Compound I-109]	13.3 ± 2.3
COc1ccc(C(=O)c2cc3cc(C)n(CC4CCOCC4)c3s2)cn1 [Compound I-144]	5.04 ± 1.8

Same assay, conditions: Dose 10, PO

Structure (SMILES)	Number of Writhes
COc1ccc(C(=O)c2cc3cc(C)n(CCN4CCOCC4)c3s2)cc1 [Compound I-36]	12.1 ± 2.8
COc1ccc(C(=O)c2cc3cc(C)n(CCCNS(C)(=O)=O)c3s2)cc1 [Compound I-44]	9.4 ± 2.6
COc1ccc(C(=O)c2cc3cc(C)n(CCN4CCOCC4)c3s2)c(F)c1 [Compound I-68]	5.92 ± 1.55
COc1ccc(C(=O)c2cc3cc(C)n(CCCNS(C)(=O)=O)c3s2)cn1 [Compound I-109]	8.93 ± 2.28
COc1ccc(C(=O)c2cc3cc(C)n(CC4CCOCC4)c3s2)cn1 [Compound I-144]	3.24 ± 1.08

Same assay, conditions: Dose 30, IP

Structure (SMILES)	Number of Writhes
Cc1cc2cc(C(=O)c3cccc(Cl)c3Cl)sc2n1S(=O)(=O)N(C)C [Compound I-41]	5.91 ± 2.04
COc1ccc(C(=O)c2cc3cc(C)n(CCN4CCOCC4)c3s2)cn1 [Compound I-58]	1.1 ± 0.38

Same assay, conditions: Dose 30, PO

Structure (SMILES)	Number of Writhes
COc1ccc(C(=O)c2cc3cc(C)n(CCN4CCOCC4)c3s2)cc1 [Compound I-36]	7.3 ± 2.5
Cc1cc2cc(C(=O)c3cccc(Cl)c3Cl)sc2n1CCCNS(C)(=O)=O [Compound I-37]	13.0 ± 1.65
CCS(=O)(=O)n1c(C)cc2cc(C(=O)c3cccnc3Cl)sc21 [Compound I-43]	13.8 ± 1.88
COc1ccc(C(=O)c2cc3cc(C)n(CCCNS(C)(=O)=O)c3s2)cc1 [Compound I-44]	8.25 ± 2.54 and 9.7 ± 1.7
COc1ccc(C(=O)c2cc3cc(C)n(CCN4CCOCC4)c3s2)cn1 [Compound I-58]	15.9 ± 2.7
COc1ccc(C(=O)c2cc3cc(C)n(CCN4CCOCC4)c3s2)c(Cl)c1 [Compound I-70]	3.2 ± 1.57
COc1ccc(C(=O)c2cc3cc(C)n(CCCNS(C)(=O)=O)c3s2)c(F)c1 [Compound I-87]	17.2 ± 2.5
COc1ccc(C(=O)c2cc3cc(C)n(CCCNS(C)(=O)=O)c3s2)cn1 [Compound I-109]	5.78 ± 1.75
COc1ccc(C(=O)c2cc3cc(C)n(CC4CCOCC4)c3s2)cn1 [Compound I-144]	1.8 ± 0.72
